Experimental data as given in PubChem BioAssay AID328 (DTP/NCI, 2004).
Several values for one entry are separate records, joined by “and”; a condition that tells them apart may be missing. Identical values can stand only once. Toxic doses and inconclusive results are not listed. How the source made its calls: active means survival T/C of 150% or more; inactive means T/C below 125% in these data.

System: BDF1 mice, P388 leukemia ip, median survival T/C
Experiment: NCI In Vivo Anticancer Drug Screen. Data for tumor model P388 Leukemia (intraperitoneal) in B6D2F1 (BDF1) mice
Conditions: endpoint: median survival time, higher = longer survival
Procedure: The antitumor activity of compounds was measured in mice bearing transplantable tumors. Survival or tumor size were measured and the results are expressed as the measurement made in the treated group (T) divided by the measurement made in the vehicle treated control group (C). The tumor model used in this assay is P388 Leukemia (intraperitoneal) in B6D2F1 (BDF1) mice

[1] = dose: 50.0 mg/kg/injection, schedule: Q01DX009 (ip), vehicle: saline with Tween-80
[2] = dose: 100.0 mg/kg/injection, schedule: Q01DX009 (ip), vehicle: saline with Tween-80
[3] = dose: 200.0 mg/kg/injection, schedule: Q01DX009 (ip), vehicle: saline with Tween-80
[4] = dose: 100.0 mg/kg/injection, schedule: Q01DX009 (ip), vehicle: Klucel (hydroxypropylcellulose) (HPC)
[5] = dose: 200.0 mg/kg/injection, schedule: Q01DX009 (ip), vehicle: Klucel (hydroxypropylcellulose) (HPC)
[6] = dose: 400.0 mg/kg/injection, schedule: Q01DX009 (ip), vehicle: Klucel (hydroxypropylcellulose) (HPC)
[7] = dose: 100.0 mg/kg/injection, schedule: Q04DX003 (ip), vehicle: saline with Tween-80
[8] = dose: 100.0 mg/kg/injection, schedule: Q01DX009 (ip), vehicle: saline
[9] = dose: 100.0 mg/kg/injection, schedule: Q04DX003 (ip), vehicle: saline
[10] = dose: 200.0 mg/kg/injection, schedule: Q04DX003 (ip), vehicle: saline
[11] = dose: 100.0 mg/kg/injection, schedule: Q04DX003 (ip), vehicle: Klucel (hydroxypropylcellulose) (HPC)
[12] = dose: 200.0 mg/kg/injection, schedule: Q04DX003 (ip), vehicle: Klucel (hydroxypropylcellulose) (HPC)

Measured: T/C

CC1CCCCC1(O)CSc1ccccc1 (centres undefined)
inactive: dose: 12.5 mg/kg/injection, schedule: Q01DX009 (ip), vehicle: saline with Tween-80 100 % of control and 106 % of control | dose: 25.0 mg/kg/injection, schedule: Q01DX009 (ip), vehicle: saline with Tween-80 102 % of control and 116 % of control | [1] 103 % of control and 113 % of control | [2] 116 % of control (2×) and 124 % of control | [3] 101 % of control

O=C(O)C1CCC[N-]C1.O=C(O)C1CCC[N-]C1.[Cl][Pt+2][Cl] (centres undefined)
inactive: dose: 5.0 mg/kg/injection, schedule: Q04DX003 (ip), vehicle: saline 95 % of control | dose: 10.0 mg/kg/injection, schedule: Q04DX003 (ip), vehicle: saline 86 % of control | dose: 20.0 mg/kg/injection, schedule: Q04DX003 (ip), vehicle: saline 95 % of control

C#CCCOC(=O)Nc1ccccc1
inactive: [4] 100 % of control | [5] 90 % of control | [6] 90 % of control

CCCCCSc1nc(N)nc2nc[nH]c12
inactive: [4] 118 % of control | dose: 100.0 mg/kg/injection, schedule: Q04DX003 (ip), vehicle: other 100 % of control | [5] 95 % of control | dose: 200.0 mg/kg/injection, schedule: Q04DX003 (ip), vehicle: other 100 % of control | dose: 400.0 mg/kg/injection, schedule: Q04DX003 (ip), vehicle: other 94 % of control

CCC(C)C(NS(=O)(=O)c1ccc(C)cc1)C(=O)O (centres undefined)
inactive: dose: 50.0 mg/kg/injection, schedule: Q01DX005 (ip), vehicle: saline with Tween-80 96 % of control | dose: 100.0 mg/kg/injection, schedule: Q01DX005 (ip), vehicle: saline with Tween-80 102 % of control | dose: 200.0 mg/kg/injection, schedule: Q01DX005 (ip), vehicle: saline with Tween-80 112 % of control

O=c1[nH]nc(NCCO)c2ccccc12
inactive: [1] 112 % of control | [2] 91 % of control | [3] 102 % of control

COC(OC)c1[nH]c(=S)[nH]c(=O)c1Cc1ccc(C)c(C)c1
inactive: [2] 103 % of control | [3] 96 % of control | dose: 400.0 mg/kg/injection, schedule: Q01DX009 (ip), vehicle: saline with Tween-80 100 % of control

CCC(=O)O[C@H]1CC[C@H]2[C@@H]3C[C@H](F)C4=CC(=O)CC[C@]4(C)[C@H]3CC[C@]12C
inactive: [7] 95 % of control | dose: 200.0 mg/kg/injection, schedule: Q04DX003 (ip), vehicle: saline with Tween-80 95 % of control | dose: 400.0 mg/kg/injection, schedule: Q01DX009 (ip), vehicle: saline sonified 109 % of control | dose: 400.0 mg/kg/injection, schedule: Q04DX003 (ip), vehicle: saline with Tween-80 109 % of control

Nc1ccc(CCc2ccc(Cl)cc2S(=O)(=O)F)c(Cl)c1
inactive: [8] 95 % of control | dose: 200.0 mg/kg/injection, schedule: Q01DX009 (ip), vehicle: saline 91 % of control

CC(C)n1cc2c(N)ncnc2n1
inactive: dose: 12.5 mg/kg/injection, schedule: Q01DX009 (ip), vehicle: saline 92 % of control | dose: 25.0 mg/kg/injection, schedule: Q01DX009 (ip), vehicle: saline 92 % of control | dose: 50.0 mg/kg/injection, schedule: Q01DX009 (ip), vehicle: saline 100 % of control and 120 % of control | [8] 100 % of control | [9] 92 % of control | [10] 100 % of control

Nc1nc(=S)c2ncn(C3OC(COC(=O)c4ccc([N+](=O)[O-])cc4)C(OC(=O)c4ccc([N+](=O)[O-])cc4)C3OC(=O)c3ccc([N+](=O)[O-])cc3)c2[nH]1 (centres undefined)
inactive: [4] 111 % of control | [11] 91 % of control | [5] 103 % of control | [12] 91 % of control

COc1cc2c(=O)n(C)c3c4cc5c(cc4ccc3c2cc1OC)OCO5
inactive: dose: 1.0 mg/kg/injection, schedule: Q01DX010 (ip), vehicle: steriod suspending solution 103 % of control | dose: 3.0 mg/kg/injection, schedule: Q01DX010 (ip), vehicle: steriod suspending solution 117 % of control | dose: 6.0 mg/kg/injection, schedule: Q01DX010 (ip), vehicle: steriod suspending solution 110 % of control

C/C(=N/O)[c-]1[c-][c-][c-][c-]1.[Fe].[c-]1[c-][c-][cH-][c-]1
inactive: dose: 25.0 mg/kg/injection, schedule: Q04DX003 (ip), vehicle: saline with Tween-80 100 % of control | dose: 50.0 mg/kg/injection, schedule: Q04DX003 (ip), vehicle: saline with Tween-80 109 % of control | [7] 109 % of control

CC(=O)C(C(=O)Nc1ccccc1)c1cc(NS(=O)(=O)c2ccccc2)ccc1O (centres undefined)
inactive: dose: 100.0 mg/kg/injection, schedule: Q01DX001 (ip), vehicle: saline with Tween-80 90 % of control | dose: 200.0 mg/kg/injection, schedule: Q01DX001 (ip), vehicle: saline with Tween-80 95 % of control | dose: 400.0 mg/kg/injection, schedule: Q01DX001 (ip), vehicle: saline with Tween-80 86 % of control

O=C(/C=C\c1ccnc2ccccc12)c1ccc([N+](=O)[O-])cc1
inactive: dose: 12.5 mg/kg/injection, schedule: Q04DX003 (ip), vehicle: water 96 % of control | dose: 25.0 mg/kg/injection, schedule: Q01DX009 (ip), vehicle: water 114 % of control | dose: 25.0 mg/kg/injection, schedule: Q04DX003 (ip), vehicle: water 90 % of control | dose: 50.0 mg/kg/injection, schedule: Q01DX009 (ip), vehicle: water 117 % of control | dose: 50.0 mg/kg/injection, schedule: Q04DX003 (ip), vehicle: water 115 % of control | dose: 100.0 mg/kg/injection, schedule: Q01DX009 (ip), vehicle: water 95 % of control | dose: 100.0 mg/kg/injection, schedule: Q04DX003 (ip), vehicle: water 106 % of control and 111 % of control | dose: 200.0 mg/kg/injection, schedule: Q01DX009 (ip), vehicle: water 98 % of control | dose: 200.0 mg/kg/injection, schedule: Q04DX003 (ip), vehicle: water 100 % of control | dose: 400.0 mg/kg/injection, schedule: Q01DX009 (ip), vehicle: water 96 % of control | dose: 400.0 mg/kg/injection, schedule: Q04DX003 (ip), vehicle: water 100 % of control

COC(=O)C1OC1c1ccccc1 (centres undefined)
inactive: [4] 100 % of control | [11] 95 % of control | [5] 100 % of control | [12] 95 % of control | [6] 100 % of control | dose: 400.0 mg/kg/injection, schedule: Q04DX003 (ip), vehicle: Klucel (hydroxypropylcellulose) (HPC) 95 % of control

CN(C)c1ccc(-c2c3ccccc3nc3ccccc23)cc1
inactive: [1] 107 % of control | [2] 115 % of control | [3] 106 % of control

CC(C)C(Br)C(N)=O (centres undefined)
inactive: dose: 12.5 mg/kg/injection, schedule: Q04DX003 (ip), vehicle: saline 104 % of control | dose: 25.0 mg/kg/injection, schedule: Q04DX003 (ip), vehicle: saline 109 % of control | dose: 50.0 mg/kg/injection, schedule: Q04DX003 (ip), vehicle: saline 109 % of control

Nc1nc(F)nc2c1ncn2C1OC(CO)C(O)C1O (centres undefined)
inactive: dose: 0.5 mg/kg/injection, schedule: Q01DX010 (ip), vehicle: saline 90 % of control and 108 % of control | dose: 1.0 mg/kg/injection, schedule: Q01DX010 (ip), vehicle: saline 100 % of control and 108 % of control | dose: 2.0 mg/kg/injection, schedule: Q01DX010 (ip), vehicle: saline 110 % of control and 120 % of control | dose: 4.0 mg/kg/injection, schedule: Q01DX010 (ip), vehicle: saline 105 % of control and 112 % of control

CCCN(/C=C/C=C/C=[N+](CCC)CCC)CCC
inactive: dose: 0.03 mg/kg/injection, schedule: Q01DX009 (ip), vehicle: saline 99 % of control | dose: 0.05 mg/kg/injection, schedule: Q01DX009 (ip), vehicle: saline 104 % of control | dose: 0.1 mg/kg/injection, schedule: Q01DX009 (ip), vehicle: saline 106 % of control

C(#Cc1ccccc1)COCC1CO1 (centres undefined)
inactive: [2] 116 % of control | [9] 90 % of control | [10] 90 % of control | dose: 400.0 mg/kg/injection, schedule: Q04DX003 (ip), vehicle: saline 120 % of control
